From patent US20090028839A1, “Compositions and methods for the prophylaxis and treatment of vaginal infections” (priority 2004, published 2009) come the findings set out here.

Assay type in all cases: cell-based
The test system of assay [1] is clinical isolates of G. vaginalis. Briefly: Antibiotic resistance of clinical isolates. An excerpt:
The ability of G. vaginalis to induce HIV expression in vitro was investigated in chronically infected U1 cells by measuring HIV p24 antigen concentration. […] Moreover, we have also determined that clinical isolates of G. vaginalis are often resistant to metronidazol (73%), and clindamycin (38%), two drugs of choice for treatment of BV. […] Thus, the major BV-associated pathogens are able to increase sensitivity of human cells to HIV.

For assay [2], the system named is Group B Streptococci. In words: Agar-well inhibition zones of Lactobacillus culture supernatants. Particulars: 400 μl culture supernatant in agar well. Here is the method: (§1) To test for their antimicrobial activity, all Lactobacillus isolates were grown anaerobically (to eliminate H2O2 production) in an MRS broth for 24 hours. The supernatants were collected and filter sterilized. Agar plates (Human Blood Tween agar for G.vaginalis, and Tryptic Soy agar with 5% sheep blood for other organisms) were inoculated with tested bacteria and 400 μl of each supernatant was added into the wells punched in the agar plates. The antimicrobial activity was determined by the size of the inhibition zones, similar to the disk method used for the determination of antibiotic activity. From our collection of clinical lactobacilli strains, we selected the strain identified as L. rhamnosus 160 since its extracellular product was characterized as having the highest antimicrobial activity, as shown in Table 1.

Assay [3] has as its system Staphylococcus sp. Described as above. The note with it: 400 μl culture supernatant in agar well. Here is the method:
as §1

Assay [4] concerns E. coli. Described as above. Particulars: 400 μl culture supernatant in agar well. Here is the method: as §1
In assay [5] the test system is G. vaginalis ATCC 14018. The assay is described as above. The note with it: 400 μl culture supernatant in agar well. Here is the method:
as §1

On to `CCC[C@@H]1C[C@@H](C(=O)N[C@@H]([C@H]2O[C@H](SC)[C@H](O)[C@@H](O)[C@H]2O)[C@H](C)Cl)N(C)C1` [clindamycin], for which, in assay [1], the “Share of clinical isolates of G. vaginalis resistant” value is listed as 38%.
Still for that read-out and setting: under `Cc1ncc([N+](=O)[O-])n1CCO` [metronidazol] stands 73%.
For the compound `CC(O)C(=O)O` (stereo not drawn) [Lactic acid], the Zone of inhibition in assay [2], in assay [3], in assay [4] and in assay [5] was 1.5 mm in each case.
